Laboratory results published in patent publication US7071197B2, “N,N-disubstituted diazocycloalkanes” (Recordati S.A., priority 2002, dated 2006).

Assays:
[1] = target: T1, human cloned 5-HT1A receptors (Homo sapiens, UniProt P08908); experiment: [35S]GTPγS binding, membranes of HeLa cells transfected with human cloned 5-HT1A receptors; format: biochemical; conditions: 5-HT maximal stimulation taken as 100%
T1 construct: expressed in transfected cells
T1 sequence (P08908 1-422): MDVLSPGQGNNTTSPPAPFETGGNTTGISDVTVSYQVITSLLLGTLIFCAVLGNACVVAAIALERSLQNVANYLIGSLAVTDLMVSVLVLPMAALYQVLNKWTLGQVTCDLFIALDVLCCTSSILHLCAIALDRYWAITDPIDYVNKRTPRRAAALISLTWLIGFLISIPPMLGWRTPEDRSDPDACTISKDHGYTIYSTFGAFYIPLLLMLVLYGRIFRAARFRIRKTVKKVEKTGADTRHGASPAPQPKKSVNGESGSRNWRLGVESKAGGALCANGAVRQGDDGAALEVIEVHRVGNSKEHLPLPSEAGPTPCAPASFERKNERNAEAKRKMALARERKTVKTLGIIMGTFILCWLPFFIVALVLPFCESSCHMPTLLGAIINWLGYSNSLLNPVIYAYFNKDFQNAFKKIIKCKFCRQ
Method: A genomic clone coding for the human 5HT1A-serotonergic receptor was stably transfected in a human cell line (HeLa). HeLa cells were grown as monolayers in Dulbecco's modified Eagle medium (DMEM), containing 10% fetal bovine serum, gentamycin (0.1 mg/ml) and 5% carbon dioxide, at 37° C. The cells were detached from the growth flask at 95% confluence by a cell scraper and were lysed in cold 5 mM Tris and 5 mM EDTA buffer (pH 7.4). The homogenates were centrifuged at 40000×g×20 minutes and the pellets were resuspended in a small volume of cold 5 mM Tris and 5 mM EDTA buffer (pH 7.4) and immediately frozen and stored at −70° C. until use.
[^35S]GTPγS binding: on the experimental day, cell membranes from HeLa cells transfected with human cloned 5-HT1A receptors were resuspended in buffer pH 7.4 containing 20 mM HEPES, 3 mM MgCl2 and 120 mM NaCl (Stanton, J. A.; Beer, M. S. Eur. J. Pharmacol. 320, 267–275, 1997). The membranes were incubated with 10 μM GDP and decreasing concentrations of test drugs (from 100 μM to 0.1 nM) or decreasing concentrations of 5-HT (from 100 μM to 0.1 nM, reference curve) for 20 min at 30° C. in a final volume of about 0.25 ml. [^35S]GTPγS ([…] in 10 μl) was added to samples and incubated for a further 30 min at 30° C. Non-specific binding was determined in the presence of 10 μM GTPγS. The incubation was stopped by addition of ice-cold HEPES buffer and rapid filtration on Unifilter GF/C filters, using a Filtermate cell harvester (Packard). The filters were washed four times with total 1.2 ml of same buffer. Radioactivity was counted by liquid scintillation spectrometry with efficiency >90% (TopCount Packard). Stimulation of [^35S]GTPγS binding induced by the compounds tested was espressed as % increase in binding above basal value, being the maximal stimulation observed with 5-HT taken as 100%. The concentration-response curve of the agonistic activity was analyzed by non linear fitting program (De Lean et al., Am. J. Physiol. 235, E97-E102, 1978).
A stimulation of [^35S]GTPγS binding represented the functional correlate of the binding of an agonist compound at the 5-HT1A receptors. Stimulation induced by the endogenous ligand 5-HT was considered the maximal stimulation attainable.

[2] = target: T2, rat D3 dopamine receptors (Rattus norvegicus, UniProt P19020); experiment: [3H]-7-OH-DPAT binding to rat recombinant D3 dopamine receptors (SPA); conditions: for Ki: [3H]-7-OH-DPAT, CHO cell membranes, read-out: Binding affinity for D3 dopamine receptors Ki; for D3/5-HT1A: selectivity: ratio of Ki at D3 and Ki at 5-HT1A
T2 construct: expressed in transfected cells; host or cells: CHO cells (permanent expression)
T2 sequence (P19020 whole entry): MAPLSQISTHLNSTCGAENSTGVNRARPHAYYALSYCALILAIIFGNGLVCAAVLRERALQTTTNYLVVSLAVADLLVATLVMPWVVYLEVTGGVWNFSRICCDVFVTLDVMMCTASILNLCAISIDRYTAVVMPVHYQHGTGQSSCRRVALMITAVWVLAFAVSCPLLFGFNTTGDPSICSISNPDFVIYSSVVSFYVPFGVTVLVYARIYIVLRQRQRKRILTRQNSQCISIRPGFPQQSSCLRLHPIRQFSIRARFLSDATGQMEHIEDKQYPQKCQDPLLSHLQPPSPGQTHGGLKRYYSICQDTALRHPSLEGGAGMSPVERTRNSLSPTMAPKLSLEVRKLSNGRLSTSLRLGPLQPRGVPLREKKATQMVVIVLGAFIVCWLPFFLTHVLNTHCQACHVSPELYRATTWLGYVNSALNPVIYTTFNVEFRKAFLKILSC
Method: Cloned rat D3 dopamine receptors permanently expressed in CHO cells were used (Chio et al. Mol. Pharmacol. 45, 51–60, 1994). Membranes were prepared by mechanical disruption of cell pellets in ice cold 50 mM Tris, 5 mM EDTA, 5 mM EGTA, pH 7.4 followed by low (100 g), medium (20000 g) and high (80000 g) speed centrifugation steps. Competition radioligand binding experiments employed 11 drug concentrations run in duplicate in a scintillation proximity assay (SPA) format. The radioligand used was [^3H]-7-OH-DPAT (154 Ci/mmol). […] binding (75–95% of total) was defined with cold haloperidol added in excess (3 μM). Total binding was determined with buffer: 20 mM HEPES, 10 mM MgSO4, 150 mM NaCl, 1 mM EDTA (pH 7.4). Binding mixtures were made in flexible, 96-well, Wallac Micro-Beta plates by the addition of 11 μl of drug dilution, 11 μl of radioligand, and 178 μl of membrane/SPA bead suspension (100 mg of WGA-coated SPA beads incubated with 5–15 μg protein/plate in 10 ml binding buffer for 30 minutes at room temperature followed by low-speed centrifugation and resuspension in 2 ml binding buffer). After sealing and incubation at room temperature for 1 hour the plates were counted in a Wallac Micro-Beta scintillation counter.
IC50 values from both assay methods were estimated by fitting the data to a one-site competition model: Y=T/(1+10^log(X)−log(IC50)), where Y is the specific CPM's bound at concentration X and T is the specific CPM's bound in the absence of competitor. Inhibition constants (Ki) were calculated using the Cheng-Prushoff equation (Biochem. Pharmacol. 22: 3099–3108, 1973).

Row | Functional effect ([35S]GTPγS binding) [1] | Ki [2] [nM] | D3/5-HT1A [2] | Compound
1 | Neutral antagonist | 12.5 | 96 | COc1ccccc1N1CCN(CC[C@@H](c2ccccc2F)[C@H](O)C2CCCCC2)CC1 (racemic) [Ex. 1, 1-[(SR-RS)-4-cyclohexyl-4-hydroxy-3-(2-fluorophenyl)-butyl]-4-(2-methoxyphenyl)-piperazine]
2 | Neutral antagonist | 7 | 11 | COc1ccccc1N1CCN(CC[C@H](c2ccccc2)[C@@H](O)C2CCCCC2)CC1 (racemic) [Ex. 5, 1-[(RS,SR)-4-Cyclohexyl-4-hydroxy-3-phenyl-butyl]-4-(2-methoxyphenyl)-piperazine, reference compound]
3 | Neutral antagonist | 20 | 54 | COc1ccccc1N1CCN(CC[C@H](c2ccccc2F)[C@@H](O)C2CCCCC2)CC1 [Ex. 1Y, 1-[(3R,4S)-4-cyclohexyl-4-hydroxy-3-(2-fluorophenyl)-butyl]-4-(2-methoxyphenyl)-piperazine]
4 | Neutral antagonist | 3 | 12 | COc1ccccc1N1CCN(CC[C@H](c2ccccc2F)[C@H](O)C2CCCCC2)CC1 [Ex. 2X, 1-[(3R,4R)-4-cyclohexyl-4-hydroxy-3-(2-fluorophenyl)-butyl]-4-(2-methoxyphenyl)-piperazine]
